Results on 56 compounds are retold here after ChEMBL document CHEMBL3882724 (2013).

Each structure is given as a SMILES string.

The target in the series is T1, CYP21 (steroid 21-hydroxylase) (Homo sapiens, UniProt P08686).
T1 sequence (P08686 whole entry): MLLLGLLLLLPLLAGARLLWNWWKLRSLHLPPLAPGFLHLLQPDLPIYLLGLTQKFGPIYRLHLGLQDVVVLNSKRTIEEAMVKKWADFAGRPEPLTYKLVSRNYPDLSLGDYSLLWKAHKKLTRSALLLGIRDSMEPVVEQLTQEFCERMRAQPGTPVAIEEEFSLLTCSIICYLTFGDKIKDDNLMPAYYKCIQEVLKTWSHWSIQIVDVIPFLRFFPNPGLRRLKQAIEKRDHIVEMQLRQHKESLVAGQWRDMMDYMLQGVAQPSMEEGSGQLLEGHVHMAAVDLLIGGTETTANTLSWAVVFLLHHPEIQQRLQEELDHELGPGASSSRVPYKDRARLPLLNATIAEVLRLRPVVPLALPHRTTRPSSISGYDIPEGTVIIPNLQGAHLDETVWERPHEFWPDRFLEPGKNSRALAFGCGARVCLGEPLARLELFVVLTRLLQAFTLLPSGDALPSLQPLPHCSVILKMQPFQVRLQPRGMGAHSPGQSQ
The experiment in a line: Inhibition of human CYP21 transfected in HEK293 cells assessed as decrease in conversion of progesterone to 11-deoxycorticosterone preincubated for 5 hrs followed by progesterone addition measured after 20 hrs by ELISA. More on the design: concentration or dose not given beside the values. Conditions: HEK293 cells transfected with human CYP21, probe progesterone. In kind it is cell-based. In general terms: ELISA stands for enzyme-linked immunosorbent assay.
Broadly, the inhibition is the percentage by which the read-out fell short of the control. Turning to `C[C@]12CC[C@@H](NC(=O)c3nccs3)CC1=CC[C@@H]1[C@@H]2CC[C@]2(C)C(n3ccnc3)=CC[C@@H]12`, the inhibition at 20 h fell in the range of 10 to 50%. As for `CN1C(=O)CC[C@@]2(C)C1=CC[C@@H]1[C@@H]2CC[C@]2(C)C(c3cncc(C(F)F)c3)=CC[C@@H]12`, the inhibition at 20 h was less than 10%. The value for `C[C@]12CC[C@@H](N=[N+]=[N-])CC1CC[C@@H]1[C@@H]2CC[C@]2(C)C(c3cccnc3)=CC[C@@H]12` (stereo partly specified) was 10 to 50%. With `CCNC(=O)NC1CC[C@@]2(C)C(CC[C@@H]3[C@@H]2CC[C@]2(C)C(c4cccnc4)=CC[C@@H]32)C1C` (stereo partly specified) the figure was less than 10%; with `C[C@]12CC[C@H]3[C@@H](CC(=O)C45CC4CC[C@]35C)C1=CC=C2c1cccnc1` (stereo partly specified), no less than 50%; with `CC1C[C@@H]2[C@H](CC[C@]3(C)C(c4cccnc4)=CC[C@@H]23)[C@@]2(C)CC[C@](C)(O)CC12` (stereo partly specified), 10 to 50%. With `CC(C)(C)NC(=O)O[C@H]1CC[C@@]2(C)C(=CC[C@H]3C4=CC=C(c5cccnc5)[C@@]4(C)CC[C@@H]32)C1` the figure was 10 to 50%; with `Cc1ccncc1C1=CC=C2[C@@H]3CC[C@H]4CC(=O)NCC[C@]4(C)[C@H]3CC[C@]12C`, 10 to 50%. Take `CCc1ccncc1C1=CC=C2[C@@H]3CCC4C[C@@H](OC(C)=O)CC[C@]4(C)[C@H]3CC[C@]12C` (stereo partly specified): the inhibition at 20 h lay within 10 to 50%. The value for `Cc1cc(C2=CC[C@H]3[C@@H]4CC=C5C[C@@H](O)CC[C@]5(C)[C@H]4CC[C@]23C)cnc1F` was less than 10%; that for `C[C@]12CC[C@H]3[C@@H](CCC4=CC(=O)CC[C@@]43C)C1=CC=C2c1ccc(F)nc1` was 10 to 50%; that for `CC1C[C@H]2C3=CC=C(c4ccc(F)nc4)[C@@]3(C)CC[C@@H]2[C@@]2(C)CCC(=O)C=C12` (stereo partly specified) was 10 to 50%. With `CCNC(=O)N[C@@H]1CC[C@@]2(C)C(=CC[C@@H]3[C@@H]2CC[C@]2(C)C(c4cncc(F)c4)=CC[C@@H]32)C1` the figure was 10 to 50%; with `CCc1ccncc1C1=CC=C2[C@@H]3CCC4C[C@@H](O)CC[C@]4(C)[C@H]3CC[C@]12C` (stereo partly specified), less than 10%; with `C[C@]12CCC3(CO3)CC1CCC1C2CC[C@]2(C)C(c3cccnc3)=CCC12` (stereo partly specified), 10 to 50%. With `C[C@@H]1C2CC[C@@H]3[C@H](CC[C@]4(C)C(c5cncc(C(F)F)c5)=CC[C@@H]34)[C@@]2(C)CC[C@H]1O` (stereo partly specified) the figure was less than 10%. In the case of `C[C@]12CCC(=O)C=C1C(n1ccnn1)C[C@@H]1[C@@H]2CC[C@]2(C)C(c3cccnc3)=CC[C@@H]12` (stereo partly specified), the inhibition at 20 h was 10 to 50%. With `CCOc1cncc(C2=CC[C@H]3[C@@H]4CC[C@H]5C[C@@H](OC)CC[C@]5(C)[C@H]4CC[C@]23C)c1` the figure was 10 to 50%. With `Cc1ccncc1C1=CC=C2C3CCC4C[C@@H](O)CC[C@]4(C)C3CC[C@]12C` (stereo partly specified) the figure was 10 to 50%; with `C[C@]12CC[C@H](NC(=O)C(F)(F)F)CC1CC[C@@H]1[C@@H]2CC[C@]2(C)C(c3cccnc3)=CC[C@@H]12` (stereo partly specified), 10 to 50%. The value for `CC1C[C@@H]2[C@H](CC[C@]3(C)C(c4cccnc4)=CC[C@@H]23)[C@@]2(C)CC[C@@](C)(O)CC12` (stereo partly specified) was 10 to 50%.

For `C[C@]12CC[C@H]3[C@@H](CC(c4ccccc4)C4=CC(=O)CC[C@@]43C)C1=CC=C2c1cccnc1` (stereo partly specified), the inhibition at 20 h fell in the range of 10 to 50%. The value for `C[C@]12CC[C@H](O)CC1=CC[C@@H]1[C@@H]2CC[C@]2(C)C(c3cncc(NS(=O)(=O)C(F)(F)F)c3)=CC[C@@H]12` was less than 10%. The value for `Cc1cnc(F)c(C2=CC[C@H]3[C@@H]4CC=C5C[C@@H](O)CC[C@]5(C)[C@H]4CC[C@]23C)c1` was 10 to 50%; that for `CCNC(=O)NC1CC[C@@]2(C)C(=CC[C@@H]3[C@@H]2CC[C@]2(C)C(c4cncc(OC)c4)=CC[C@@H]32)C1` (stereo partly specified) was 10 to 50%. The value for `C[C@]12CCC(N)CC1CC[C@@H]1[C@@H]2CC[C@]2(C)C(c3cccnc3)=CC[C@@H]12` (single isomer, unassigned) was 10 to 50%; that for `CC1C(O)CC[C@@]2(C)C1CC[C@@H]1[C@@H]2CC[C@]2(C)C(c3cncc(C(F)F)c3)=CC[C@@H]12` (stereo partly specified) was less than 10%. With `C[C@]12CCC(=O)C=C1C(C1CC1)C[C@@H]1[C@@H]2CC[C@]2(C)C(c3cccnc3)=CC[C@@H]12` (stereo partly specified), the inhibition at 20 h is less than 10%. With `C[C@]12CC[C@@H](NS(C)(=O)=O)CC1=CC[C@H]1C3CC=C(c4cccnc4)[C@@]3(C)CC[C@@H]12` (single isomer, unassigned) the figure was 10 to 50%; with `CC(C)(C)C(=O)O[C@H]1CC[C@@]2(C)C(=CC[C@H]3C4=CC=C(c5cccnc5)[C@@]4(C)CC[C@@H]32)C1`, 10 to 50%. The value for `CC(=O)NC1CC[C@@]2(C)C(CC[C@@H]3[C@@H]2CC[C@]2(C)C(c4cccnc4)=CC[C@@H]32)C1C` (stereo partly specified) was less than 10%; that for `CC1(C)C2=CC[C@@H]3[C@H](CC[C@]4(C)C(c5cccnc5)=CC[C@@H]34)[C@@]2(C)CC/C1=N\O` was less than 10%; that for `Cc1ccncc1C(=O)O[C@H]1CC[C@@]2(C)C(=CC[C@H]3C4=CC=C(c5cccnc5)[C@@]4(C)CC[C@@H]32)C1` was 10 to 50%.

Take `C[C@]12CC(F)(F)CC1CC[C@@H]1[C@@H]2CC[C@]2(C)C(c3cccnc3)=CC[C@@H]12` (stereo partly specified): the inhibition at 20 h was 10 to 50%. For `CCNC(=O)N[C@@H]1CC[C@@]2(C)C(CC[C@@H]3[C@@H]2CC[C@]2(C)C(n4ccnc4)=CC[C@@H]32)C1` (stereo partly specified), the inhibition at 20 h is no less than 50%. The value for `C[C@]12CC[C@H]3[C@@H](CC4OC45C[C@@H](O)CC[C@]35C)C1=CC=C2c1cccnc1` (stereo partly specified) was no less than 50%. In the case of `Cc1cnc(F)c(C2=CC[C@H]3[C@@H]4CCC5=CC(=O)CC[C@]5(C)[C@H]4CC[C@]23C)c1`, the inhibition at 20 h was in the range of 10 to 50%. The value for `C[C@]12CC[C@H](O)CC1CC[C@@H]1[C@@H]2CC[C@]2(C)C(c3ccc[n+]([O-])c3)CC[C@@H]12` (stereo partly specified) was 10 to 50%.

On to `CC1(C)C2=CC[C@@H]3[C@H](CC[C@]4(C)C(c5cccnc5)=CC[C@@H]34)[C@@]2(C)CCC1O` (stereo partly specified), for which the inhibition at 20 h is less than 10%. The value for `CC[C@@]1(O)CC[C@@]2(C)C(CC[C@@H]3[C@@H]2CC[C@]2(C)C(c4cccnc4)=CC[C@@H]32)C1` (stereo partly specified) was less than 10%; that for `CC1C[C@H]2C3=CC=C(c4cncc(C(F)F)c4)[C@@]3(C)CC[C@@H]2[C@@]2(C)CCNC(=O)C=C12` (stereo partly specified) was less than 10%. With `CC(CO)(CO)C(=O)O[C@H]1CC[C@@]2(C)C(=CC[C@H]3C4=CC=C(c5cccnc5)[C@@]4(C)CC[C@@H]32)C1` the figure was less than 10%. The value for `Cc1ccncc1C1=CC[C@H]2[C@@H]3CC[C@H]4CNC(=O)CC[C@]4(C)[C@H]3CC[C@]12C` was 10 to 50%. As for `COC1CC[C@@]2(C)C(=CC[C@@H]3[C@@H]2CC[C@]2(C)C(c4cccnc4)=CC[C@@H]32)C1` (stereo partly specified), the inhibition at 20 h was less than 10%.

Turning to `C[C@]12CC[C@H](O)CC1=CC[C@@H]1[C@@H]2CC[C@]2(C)C(c3cncc(NS(C)(=O)=O)c3)=CC[C@@H]12`, the inhibition at 20 h was less than 10%. The value for `C[C@]12CCC(=O)C=C1C(C1CC1)C[C@@H]1[C@@H]2CC[C@]2(C)C(c3cncc(F)c3)=CC[C@@H]12` (stereo partly specified) was 10 to 50%; that for `C[C@]12CC[C@H]3[C@@H](CCC4=CC(=O)CC[C@@]43C)C1=CC=C2c1cncc(Cl)c1` was 10 to 50%. With `C[C@]1(O)CC[C@@]2(C)C(=CC[C@@H]3[C@@H]2CC[C@]2(C)C(c4cncc(F)c4)=CC[C@@H]32)C1`, the inhibition at 20 h fell in the range of 10 to 50%. With `CO[C@H]1CC[C@@]2(C)C(=CC[C@@H]3[C@@H]2CC[C@]2(C)C(n4ccnc4)=CC[C@@H]32)C1` the figure was 10 to 50%; with `CC(=O)N(C)[C@H]1CC[C@@]2(C)C(CC[C@@H]3[C@@H]2CC[C@]2(C)C(c4cccnc4)=CC[C@@H]32)C1` (stereo partly specified), 10 to 50%. Consider `CC1C[C@H]2C3=CC=C(c4cncc(C(F)F)c4)[C@@]3(C)CC[C@@H]2[C@@]2(C)CCC(=O)C=C12` (stereo partly specified), for which the inhibition at 20 h was less than 10%. With `C[C@]12CC[C@H]3[C@@H](CCC45CC4C(O)CC[C@]35C)[C@@H]1CC=C2c1cncc(F)c1` (stereo partly specified) the figure was 10 to 50%; with `C[C@]12CC[C@H]3[C@@H](CC=C4C[C@@H](OC(=O)Nc5cccnc5)CC[C@@]43C)C1=CC=C2c1cccnc1`, 10 to 50%; with `CCNC(=O)O[C@H]1CC[C@@]2(C)C(=CC[C@H]3C4=CC=C(c5cccnc5)[C@@]4(C)CC[C@@H]32)C1`, less than 10%.

On to `CN1C(=O)CC[C@@]2(C)C1=CC[C@@H]1[C@@H]2CC[C@]2(C)C(c3cnccc3F)=CC[C@@H]12`, for which the inhibition at 20 h lay within 10 to 50%. The value for `CC(=O)Nc1cncc(C2=CC[C@H]3[C@@H]4CC=C5C[C@@H](O)CC[C@]5(C)[C@H]4CC[C@]23C)c1` was less than 10%.
